Measurements reported in patent US10128078B2, “Protective agent for electron microscopic observation of biological sample in water-containing state, kit for electron microscopic observation, methods for observation, diagnosis, evaluation, and quantification by electron microscope, and sample stage” (JAPAN SCIENCE AND TECHNOLOGY AGENCY, priority 2014, dated 2018).

Legend:
artificial human skin = assay: SEM observation of three-dimensionally cultured artificial human skin after adding a drug (side effect evaluation); type: cell-based; conditions: 60 minutes after gefitinib dissolved in DMSO was added; SEM 2,500-fold; DMSO control kept normal morphology
Procedure: (§1) A protective agent for electron microscopic observation and a surfactant-containing solution were prepared in the same manner as in Example 1.
The artificial human skin obtained by sterically three-dimensionally culturing a normal human skin cell was treated with the protective agent for electron microscopic observation and the surfactant-containing solution in 60 minutes after gefitinib was added the artificial human skin. Thereafter, the artificial human skin covered with the surfactant-containing solution was introduced into the sample chamber of the SEM, irradiated with an electron beam to polymerize the surfactant-containing solution and thus to form a thin film, and subjected to the SEM observation (Example 12).
FIGS. 18A and 18B are photographs of the three-dimensionally cultured artificial human skin. FIG. 18A is a photograph which illustrates the artificial human skin being cultured and the culture vessel. In addition, FIG. 18B is a photograph of the HE-stained pathological section of the artificial human skin of FIG. 18A. FIG. 19(a) is an image of the artificial human skin which was observed and taken at a magnification of 2,500-fold by a SEM after gefitinib dissolved in dimethyl sulfoxide (DMSO) was added the artificial human skin. […]

[1] = tested on: metastatic human melanoma cell line; assay: SEM observation of metastatic human melanoma cell line inoculated on a cell sheet of normal human skin cell after adding an anti-cancer drug; type: cell-based; conditions: 60 minutes after sorafenib was added; cell sheet of human skin-derived fibroblast cell; SEM image
Procedure: as §1
A cell sheet obtained by culturing a normal human skin cell in a plate shape was inoculated with a metastatic human melanoma cell line and treated with the protective agent for electron microscopic observation and the surfactant-containing solution in 60 minutes after sorafenib of a kind of anti-cancer drug was added the cell sheet. Thereafter, the metastatic human melanoma cell line covered with the surfactant-containing solution was introduced into the sample chamber of the SEM, irradiated with an electron beam to polymerize the surfactant-containing solution and thus to form a thin film, and subjected to the SEM observation.
FIG. 17(a) is an image of the metastatic human melanoma cell line which was inoculated onto a cell sheet of the human skin-derived fibroblast cell, to which sorafenib was added, and which was observed and taken at a magnification of 1000-fold by a SEM. In addition, FIG. 17(b) is an image of FIG. 17(a) which was observed and taken at a magnification of 5000-fold by a SEM.

| Structure (SMILES) | surface change of a skin cell (side effect) (artificial human skin) | extension of a microfiber and invasion of the melanoma cell line into the normal skin cell [1] |
| --- | --- | --- |
| COc1cc2ncnc(Nc3ccc(F)c(Cl)c3)c2cc1OCCCN1CCOCC1 [gefitinib] | peeled off in a scale shape |  |
| CNC(=O)c1cc(Oc2ccc(NC(=O)Nc3ccc(Cl)c(C(F)(F)F)c3)cc2)ccn1 [sorafenib] |  | not able to extend a microfiber so that the invasion thereof is suppressed |
